Test results as given in ChEMBL document CHEMBL5442175, “EUbOPEN Chemogenomics Library - PDSP Secondary Binding” (2024).
pKi: −log10 of the molar value. Where a name gives a salt, the structure may show the parent alone.

Key:
[1] = molecular target: T1, Muscarinic acetylcholine receptor M5 (Homo sapiens, UniProt P08912); experiment: (§1) PDSP Secondary Binding target: CHRM5 - Compounds are tested at 10 uM concentration, plate are incubated at room temperature in the dark for 90 minutes. Reaction are stopped by vacuum filtration onto 0.3% polyethyleneimine soaked filter mats using Filtermate harvester. Scintillation cocktail is then melted onto microwave-dried filters on a hot plate and the radio activity is counted in Microbia counter.
T1 sequence (P08912 whole entry): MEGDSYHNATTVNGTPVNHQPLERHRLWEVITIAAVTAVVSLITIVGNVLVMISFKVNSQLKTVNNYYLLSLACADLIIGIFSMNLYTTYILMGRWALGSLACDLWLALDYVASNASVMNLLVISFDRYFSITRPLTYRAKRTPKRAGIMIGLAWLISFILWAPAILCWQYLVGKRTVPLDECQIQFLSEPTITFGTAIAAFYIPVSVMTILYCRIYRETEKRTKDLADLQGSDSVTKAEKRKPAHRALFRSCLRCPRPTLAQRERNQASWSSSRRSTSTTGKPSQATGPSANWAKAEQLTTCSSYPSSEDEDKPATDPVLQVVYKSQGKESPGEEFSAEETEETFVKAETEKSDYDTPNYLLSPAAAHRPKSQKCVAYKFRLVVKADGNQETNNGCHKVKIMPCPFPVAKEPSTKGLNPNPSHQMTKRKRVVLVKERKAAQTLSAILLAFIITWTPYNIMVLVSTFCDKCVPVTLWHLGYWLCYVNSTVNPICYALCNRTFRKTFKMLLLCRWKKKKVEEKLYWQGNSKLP

[2] = molecular target: Sodium-dependent noradrenaline transporter (Homo sapiens, UniProt P23975); experiment: as §1, with “SLC6A2” for “CHRM5”
Sequence of Sodium-dependent noradrenaline transporter (P23975 whole entry): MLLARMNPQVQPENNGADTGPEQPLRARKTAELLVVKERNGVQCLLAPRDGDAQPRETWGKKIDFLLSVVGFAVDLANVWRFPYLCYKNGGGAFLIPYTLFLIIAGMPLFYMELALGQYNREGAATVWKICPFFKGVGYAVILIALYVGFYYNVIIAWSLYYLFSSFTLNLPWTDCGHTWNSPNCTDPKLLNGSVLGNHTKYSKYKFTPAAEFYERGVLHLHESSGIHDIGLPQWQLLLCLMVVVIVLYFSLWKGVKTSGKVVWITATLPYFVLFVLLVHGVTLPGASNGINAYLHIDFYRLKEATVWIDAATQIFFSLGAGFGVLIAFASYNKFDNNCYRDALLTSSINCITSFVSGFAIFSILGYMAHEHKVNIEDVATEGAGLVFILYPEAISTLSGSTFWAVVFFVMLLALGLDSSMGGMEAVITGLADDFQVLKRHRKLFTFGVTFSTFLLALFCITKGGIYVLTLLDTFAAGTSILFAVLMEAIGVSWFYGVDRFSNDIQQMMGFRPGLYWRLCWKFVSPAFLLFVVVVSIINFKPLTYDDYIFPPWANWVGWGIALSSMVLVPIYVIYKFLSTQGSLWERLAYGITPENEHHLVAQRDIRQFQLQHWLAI

[3] = molecular target: T2, Alpha-1A adrenergic receptor (Homo sapiens, UniProt P35348); experiment: as §1, with “ADRA1A” for “CHRM5”
T2 sequence (P35348 whole entry): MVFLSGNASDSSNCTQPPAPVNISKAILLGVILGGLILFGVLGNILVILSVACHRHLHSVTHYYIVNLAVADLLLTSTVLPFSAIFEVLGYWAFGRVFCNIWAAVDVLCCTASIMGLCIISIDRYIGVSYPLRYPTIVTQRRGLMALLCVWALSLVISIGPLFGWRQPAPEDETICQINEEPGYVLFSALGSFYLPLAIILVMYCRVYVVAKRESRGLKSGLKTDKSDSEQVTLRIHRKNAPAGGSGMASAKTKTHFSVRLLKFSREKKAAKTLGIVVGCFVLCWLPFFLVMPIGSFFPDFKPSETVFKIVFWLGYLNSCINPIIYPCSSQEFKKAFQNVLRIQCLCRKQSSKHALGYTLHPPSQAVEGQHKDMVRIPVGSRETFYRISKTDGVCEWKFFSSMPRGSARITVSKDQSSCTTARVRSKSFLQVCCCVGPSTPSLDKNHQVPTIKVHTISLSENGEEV

[4] = molecular target: 5-hydroxytryptamine receptor 5A (Homo sapiens, UniProt P47898); experiment: as §1, with “HTR5A” for “CHRM5”
Sequence of 5-hydroxytryptamine receptor 5A (P47898 whole entry): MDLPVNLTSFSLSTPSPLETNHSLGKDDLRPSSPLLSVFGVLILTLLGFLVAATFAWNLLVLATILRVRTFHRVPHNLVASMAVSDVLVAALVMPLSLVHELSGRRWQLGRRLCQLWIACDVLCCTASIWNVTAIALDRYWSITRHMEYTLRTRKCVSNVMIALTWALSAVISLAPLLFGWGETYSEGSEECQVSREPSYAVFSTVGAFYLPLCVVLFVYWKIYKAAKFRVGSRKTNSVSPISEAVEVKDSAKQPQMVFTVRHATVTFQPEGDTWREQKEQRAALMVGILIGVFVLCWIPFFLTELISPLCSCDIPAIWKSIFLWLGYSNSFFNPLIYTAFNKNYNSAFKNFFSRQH

[5] = molecular target: T3, Alpha-1D adrenergic receptor (Homo sapiens, UniProt P25100); experiment: as §1, with “ADRA1D” for “CHRM5”
T3 sequence (P25100 whole entry): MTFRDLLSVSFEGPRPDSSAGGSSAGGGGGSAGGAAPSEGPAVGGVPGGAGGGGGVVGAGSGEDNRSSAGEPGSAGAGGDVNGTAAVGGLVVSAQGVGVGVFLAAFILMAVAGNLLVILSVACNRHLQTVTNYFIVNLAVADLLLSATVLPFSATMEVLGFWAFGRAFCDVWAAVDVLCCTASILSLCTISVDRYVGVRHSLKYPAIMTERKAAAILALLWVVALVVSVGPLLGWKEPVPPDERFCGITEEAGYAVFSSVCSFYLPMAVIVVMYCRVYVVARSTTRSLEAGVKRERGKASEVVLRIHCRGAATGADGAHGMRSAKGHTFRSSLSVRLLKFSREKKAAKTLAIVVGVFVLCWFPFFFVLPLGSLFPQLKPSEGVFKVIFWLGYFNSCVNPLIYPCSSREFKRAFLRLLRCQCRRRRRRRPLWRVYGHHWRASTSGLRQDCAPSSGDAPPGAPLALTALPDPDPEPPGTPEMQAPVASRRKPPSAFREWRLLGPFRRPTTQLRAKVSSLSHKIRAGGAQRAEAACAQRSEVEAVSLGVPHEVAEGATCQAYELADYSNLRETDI

[6] = molecular target: 5-hydroxytryptamine receptor 1E (Homo sapiens, UniProt P28566); experiment: as §1, with “HTR1E” for “CHRM5”
Sequence of 5-hydroxytryptamine receptor 1E (P28566 whole entry): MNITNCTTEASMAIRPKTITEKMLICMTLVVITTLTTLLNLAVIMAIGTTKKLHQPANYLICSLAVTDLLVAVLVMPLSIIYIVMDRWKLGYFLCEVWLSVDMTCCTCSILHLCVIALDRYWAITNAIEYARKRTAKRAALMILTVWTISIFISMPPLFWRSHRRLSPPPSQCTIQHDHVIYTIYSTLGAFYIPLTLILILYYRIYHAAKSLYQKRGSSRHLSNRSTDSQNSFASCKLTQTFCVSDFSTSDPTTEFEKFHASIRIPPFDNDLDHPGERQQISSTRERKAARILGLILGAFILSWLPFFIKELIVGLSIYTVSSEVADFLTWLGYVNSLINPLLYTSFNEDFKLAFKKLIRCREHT

[7] = molecular target: T4, 5-hydroxytryptamine receptor 2C (Homo sapiens, UniProt P28335); experiment: as §1, with “HTR2C” for “CHRM5”
T4 sequence (P28335 whole entry): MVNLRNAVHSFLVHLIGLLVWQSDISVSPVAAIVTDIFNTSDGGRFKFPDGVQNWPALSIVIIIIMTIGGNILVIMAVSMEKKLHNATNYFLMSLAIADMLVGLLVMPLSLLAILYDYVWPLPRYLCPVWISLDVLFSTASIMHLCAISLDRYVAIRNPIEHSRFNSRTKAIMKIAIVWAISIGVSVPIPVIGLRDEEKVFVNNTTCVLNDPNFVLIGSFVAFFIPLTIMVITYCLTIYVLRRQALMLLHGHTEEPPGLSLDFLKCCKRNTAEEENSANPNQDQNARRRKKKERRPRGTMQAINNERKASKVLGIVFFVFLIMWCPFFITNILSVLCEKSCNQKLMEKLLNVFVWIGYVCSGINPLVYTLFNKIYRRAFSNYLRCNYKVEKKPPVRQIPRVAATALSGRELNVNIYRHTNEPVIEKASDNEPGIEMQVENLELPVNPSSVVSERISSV

| pKi [1] | pKi [2] | pKi [3] | pKi [4] | pKi [5] | pKi [6] | pKi [7] | Structure (SMILES) |
| --- | --- | --- | --- | --- | --- | --- | --- |
|  | < 5.00 | 6.71 | 5.17 |  |  |  | O=S1(=O)c2cccc3cccc(c23)N1CCCN1CCN(c2ccc(F)cc2)CC1 [FANANSERIN] |
|  | 6.92 | 5.80 |  | 5.76 |  |  | CN1CCN(c2ccc(Nc3c4ccccc4nc4ccccc34)cc2)CC1 |
|  | 6.16 | 6.76 | 6.99 |  | 6.25 | 8.39 | Cc1nc2sccn2c(=O)c1CCN1CCC(=C(c2ccc(F)cc2)c2ccc(F)cc2)CC1 [RITANSERIN] |
|  |  | 6.30 |  | 6.48 | 5.27 |  | CN1CCCC(n2nc(Cc3ccc(Cl)cc3)c3ccccc3c2=O)CC1 (centres undefined) [AZELASTINE HYDROCHLORIDE] |
| 6.14 | 6.07 |  | 6.37 |  |  | 5.73 | COC(=O)C1=C(C)NC(C)=C(C(=O)OCCCN2CCC(c3ccccc3)(c3ccccc3)CC2)[C@H]1c1cccc([N+](=O)[O-])c1 [NIGULDIPINE] |
|  | 6.16 | 7.53 | 6.75 | 7.12 | 6.32 | 7.22 | O=c1ccc2ccc(OCCCCN3CCN(c4cccc5sccc45)CC3)cc2[nH]1 [BREXPIPRAZOLE] |
| 5.84 |  |  | 5.48 | 6.49 |  | 5.90 | CN(C)C(=O)N[C@H]1CC[C@H](CCN2CCN(c3cccc(Cl)c3Cl)CC2)CC1 [CARIPRAZINE HYDROCHLORIDE] |
| 6.01 | 6.42 | 6.26 |  | 6.02 |  | 5.39 | OCc1cc(C(O)CNCCCCCCOCCCCc2ccccc2)ccc1O (centres undefined) [SALMETEROL] |
|  | 7.81 | 6.56 |  | 6.14 |  |  | N#Cc1ccc2[nH]cc(CCCCN3CCN(c4ccc5oc(C(N)=O)cc5c4)CC3)c2c1 [VILAZODONE HYDROCHLORIDE] |
|  |  | 6.38 | 6.97 | 6.12 | 5.25 |  | Cc1ccc2c(c1)c1c(n2CCc2ccc(C)nc2)CCN(C)C1 [LATREPIRDINE] |
| 6.53 |  |  |  |  | 5.84 | 8.02 | Clc1cccc(COc2cncc(N3CCNCC3)n2)c1 |
|  |  | 6.86 | 5.96 | 6.35 |  |  | CCc1nn(CCCN2CCN(c3cccc(Cl)c3)CC2)c(=O)n1CCOc1ccccc1 [NEFAZODONE HYDROCHLORIDE] |
|  |  |  | 5.61 | 5.68 |  | 6.48 | CCc1ccc(OCc2ccccc2C(=O)Nc2ccc3nc(C)cc(N)c3c2)cc1 |
| 6.31 | 6.21 | 6.29 | 5.81 | 5.77 |  | 6.60 | S=C(NCCCc1c[nH]cn1)NCCCN(Cc1ccc(Cl)c(Cl)c1)c1ccc(Br)cn1 |
|  |  | 7.52 |  | 7.32 |  |  | C[C@H](Cc1cc2c(c(C(N)=O)c1)N(CCCO)CC2)NCCOc1ccccc1OCC(F)(F)F [SILODOSIN] |
|  |  | 5.79 | 6.70 | 5.79 |  | 6.85 | CCCCCNC(=N)N/N=C/c1c[nH]c2ccc(OC)cc12 [TEGASEROD MALEATE] |
|  | 6.18 |  | 5.93 |  | 6.01 | 6.58 | COc1ccc(NC(=O)c2ccc(-c3ccc(-c4noc(C)n4)cc3C)cc2)cc1OCCN(C)C |
| 5.58 |  |  | 6.25 | 5.22 |  | 6.05 | COc1cc(-n2cnc3cc(-c4ccc(Cl)cc4)sc3c2=O)ccc1OCCN1CCCC1 |

| Structure (SMILES) | pKi [1] | pKi [2] | pKi [3] | pKi [4] | pKi [5] | pKi [6] | pKi [7] |
| --- | --- | --- | --- | --- | --- | --- | --- |
| Cc1c(P(=S)(c2ccccc2)c2ccccc2)n2ccccc2[n+]1C/C=C/c1ccccc1 | 6.29 | 6.02 |  |  |  |  |  |
| CN1C[C@H](C(=O)N[C@]2(C)O[C@@]3(O)[C@@H]4CCCN4C(=O)[C@H](Cc4ccccc4)N3C2=O)C[C@@H]2c3cccc4[nH]cc(c34)C[C@H]21 [DIHYDROERGOTAMINE MESYLATE] |  |  | 7.48 | 7.50 |  | 6.17 | 6.67 |
| Cc1nc(-c2ccc(-c3ccc(C(=O)N4CCc5cc6c(cc54)C4(CCN(C)CC4)CO6)cc3)c(C)c2)no1 [SB-224289] | 6.46 | 5.76 |  |  | 5.68 |  | 6.07 |
